Columns and labels:
PI3Kβ = target: T1, PI3Kβ (Homo sapiens, UniProt P42338); assay: ELISA assay for PI3Kβ: in-cell ELISA, phosphorylation of AKT (Ser473) in PC-3 cells; format: cell-based; conditions: for IC50: cellular, pAKT (Ser473), PC-3 cells, LPA stimulation, read-out: IC50 p110β; for α/β ratio: ratio of cellular IC50 values, Table 2
T1 construct: endogenous in cells; host or cells: PC-3 (ATCC #CRL-1435)

PI3Kδ = target: T2, PI3Kδ (Homo sapiens, UniProt O00329); assay: ELISA assay for PI3Kδ: sandwich ELISA, phosphorylation of AKT (Thr308) in Raji cells; format: cell-based; conditions: for IC50: cellular, pAKT (Thr308), Raji cells, anti-Human IgM stimulation, read-out: IC50 p110δ; for α/δ ratio / β/δ ratio / γ/δ ratio: ratio of cellular IC50 values, Table 2
T2 construct: endogenous in cells; host or cells: Raji (ATCC #CCL-86)
In short: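 Raji cells, serum-starved 2 hrs, treated with compound (10 concentrations) for 2 hrs at 37° C, then stimulated 30 min with anti-human IgM. Lysates analysed by sandwich ELISA for pAKT Thr308 and total AKT with luminescent read-out. IC50 from curve fitting.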

mTOR = mTOR (Homo sapiens, UniProt P42345); assay: mTOR inhibition (Table 1); format: biochemical; conditions: Table 1, no method described

T2 sequence (O00329 whole entry): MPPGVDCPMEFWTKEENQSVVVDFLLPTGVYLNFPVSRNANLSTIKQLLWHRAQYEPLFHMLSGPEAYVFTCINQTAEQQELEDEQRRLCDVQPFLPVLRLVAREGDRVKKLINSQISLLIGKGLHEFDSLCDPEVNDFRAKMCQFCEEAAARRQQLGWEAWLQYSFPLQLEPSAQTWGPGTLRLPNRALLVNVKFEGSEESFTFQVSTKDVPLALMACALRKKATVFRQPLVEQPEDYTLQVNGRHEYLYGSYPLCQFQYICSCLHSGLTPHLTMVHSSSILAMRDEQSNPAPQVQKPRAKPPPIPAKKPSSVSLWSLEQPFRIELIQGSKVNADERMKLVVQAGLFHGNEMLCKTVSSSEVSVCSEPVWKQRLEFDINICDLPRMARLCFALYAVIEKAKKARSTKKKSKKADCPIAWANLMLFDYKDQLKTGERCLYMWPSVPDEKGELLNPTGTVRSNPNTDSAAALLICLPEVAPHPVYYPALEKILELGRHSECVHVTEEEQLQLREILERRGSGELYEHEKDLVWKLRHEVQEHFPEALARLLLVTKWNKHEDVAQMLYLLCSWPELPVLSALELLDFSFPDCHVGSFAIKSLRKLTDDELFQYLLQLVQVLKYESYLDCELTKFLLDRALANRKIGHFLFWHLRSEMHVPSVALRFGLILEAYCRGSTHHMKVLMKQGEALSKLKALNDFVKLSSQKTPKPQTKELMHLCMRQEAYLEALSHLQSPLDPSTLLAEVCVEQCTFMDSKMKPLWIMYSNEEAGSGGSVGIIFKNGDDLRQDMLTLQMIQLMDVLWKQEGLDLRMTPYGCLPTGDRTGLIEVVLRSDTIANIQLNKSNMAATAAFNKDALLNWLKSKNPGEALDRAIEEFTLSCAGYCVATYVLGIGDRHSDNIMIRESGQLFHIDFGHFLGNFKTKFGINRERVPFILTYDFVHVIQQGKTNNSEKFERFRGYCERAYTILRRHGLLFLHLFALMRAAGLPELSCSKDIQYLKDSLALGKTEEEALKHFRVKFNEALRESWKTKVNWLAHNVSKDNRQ
T2 sequence (P27986 whole entry partner): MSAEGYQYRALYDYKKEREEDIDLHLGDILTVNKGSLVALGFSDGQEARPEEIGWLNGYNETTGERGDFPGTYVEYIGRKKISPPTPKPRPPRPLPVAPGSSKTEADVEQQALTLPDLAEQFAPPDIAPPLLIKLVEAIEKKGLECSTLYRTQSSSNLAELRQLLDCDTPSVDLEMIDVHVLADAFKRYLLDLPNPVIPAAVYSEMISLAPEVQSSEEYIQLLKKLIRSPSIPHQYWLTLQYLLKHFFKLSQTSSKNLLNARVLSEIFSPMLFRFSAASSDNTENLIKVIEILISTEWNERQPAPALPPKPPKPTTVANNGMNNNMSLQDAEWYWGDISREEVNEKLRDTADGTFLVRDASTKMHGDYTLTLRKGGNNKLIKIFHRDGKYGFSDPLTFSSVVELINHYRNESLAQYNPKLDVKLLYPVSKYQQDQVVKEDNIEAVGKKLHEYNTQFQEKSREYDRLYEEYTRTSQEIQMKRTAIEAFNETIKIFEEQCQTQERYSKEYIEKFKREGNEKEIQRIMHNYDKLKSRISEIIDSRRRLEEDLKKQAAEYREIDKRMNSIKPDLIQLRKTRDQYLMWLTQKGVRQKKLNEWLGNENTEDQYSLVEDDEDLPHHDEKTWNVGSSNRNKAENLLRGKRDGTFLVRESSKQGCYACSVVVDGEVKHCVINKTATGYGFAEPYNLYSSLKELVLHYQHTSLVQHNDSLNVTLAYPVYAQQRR
T1 sequence (P42338 whole entry): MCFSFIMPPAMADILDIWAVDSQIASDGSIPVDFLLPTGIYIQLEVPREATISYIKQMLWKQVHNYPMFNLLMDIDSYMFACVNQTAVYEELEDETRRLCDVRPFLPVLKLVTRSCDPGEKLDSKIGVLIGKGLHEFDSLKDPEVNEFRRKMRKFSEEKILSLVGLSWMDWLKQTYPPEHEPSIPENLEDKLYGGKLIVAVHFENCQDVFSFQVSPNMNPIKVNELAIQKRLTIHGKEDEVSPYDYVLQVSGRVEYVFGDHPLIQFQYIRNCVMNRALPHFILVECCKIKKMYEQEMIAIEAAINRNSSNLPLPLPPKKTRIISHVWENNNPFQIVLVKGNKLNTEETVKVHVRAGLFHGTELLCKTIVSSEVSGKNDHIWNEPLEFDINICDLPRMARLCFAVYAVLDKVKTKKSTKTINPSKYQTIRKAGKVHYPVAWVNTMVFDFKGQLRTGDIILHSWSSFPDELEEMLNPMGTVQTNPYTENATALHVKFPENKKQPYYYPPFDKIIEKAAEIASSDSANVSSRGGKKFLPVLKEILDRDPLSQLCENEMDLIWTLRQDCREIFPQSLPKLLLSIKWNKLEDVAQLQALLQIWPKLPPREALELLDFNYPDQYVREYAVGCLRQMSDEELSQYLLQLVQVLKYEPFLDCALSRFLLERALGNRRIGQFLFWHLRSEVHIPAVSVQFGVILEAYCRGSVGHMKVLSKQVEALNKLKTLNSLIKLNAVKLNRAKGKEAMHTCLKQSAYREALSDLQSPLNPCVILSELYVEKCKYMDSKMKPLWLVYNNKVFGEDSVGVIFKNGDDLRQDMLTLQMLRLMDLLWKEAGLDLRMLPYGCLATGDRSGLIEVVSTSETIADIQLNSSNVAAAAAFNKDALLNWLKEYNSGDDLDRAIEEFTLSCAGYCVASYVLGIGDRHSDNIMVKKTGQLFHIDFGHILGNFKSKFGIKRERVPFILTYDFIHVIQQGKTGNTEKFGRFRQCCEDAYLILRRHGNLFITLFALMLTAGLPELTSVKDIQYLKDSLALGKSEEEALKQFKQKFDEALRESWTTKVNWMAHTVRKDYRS
T1 sequence (P27986 whole entry partner): as the sequence (P27986 whole entry partner) above

Question: Which IC50 (PI3Kβ) does the source give for `CC(C)(Cc1ccccc1C1CCNC1)Nc1nc(N2CCOCC2)nc(-n2c(C(F)F)nc3ccccc32)n1` (centres unmarked) [Compound A74, 4-(2-(difluoromethyl)-1H-benzo[d]imidazol-1-yl)-N-(2-methyl-1-(2-(pyrrolidin-3-yl)phenyl)propan-2-yl)-6-morpholino-1,3,5-triazin-2-amine] here?
Answer: ≤ 100 nM

Question: And the α/β ratio (PI3Kβ)?
Answer: A’

Question: What about the IC50 (PI3Kδ) of the same compound?
Answer: ≤ 100 nM

Question: What about the α/δ ratio (PI3Kδ) of the same compound?
Answer: A’

Question: And the β/δ ratio (PI3Kδ)?
Answer: C’

Question: What about the γ/δ ratio (PI3Kδ) of the same compound?
Answer: A’

Question: And the IC50 (mTOR)?
Answer: > 500 nM

Question: `CN(C)CCCc1ccccc1CC(C)(C)Nc1nc(N2CCOCC2)nc(-n2c(C(F)F)nc3ccccc32)n1` [Compound A76, 4-(2-(difluoromethyl)-1H-benzo[d]imidazol-1-yl)-N-(1-(2-(3-(dimethylamino)propyl)phenyl)-2-methylpropan-2-yl)-6-morpholino-1,3,5-triazin-2-amine] was tested. Which IC50 (PI3Kβ) did it give?
Answer: ≤ 100 nM

Question: What about the α/β ratio (PI3Kβ) of the same compound?
Answer: A’

Question: And the IC50 (PI3Kδ)?
Answer: ≤ 100 nM

Question: And the α/δ ratio (PI3Kδ)?
Answer: A’

Question: And the β/δ ratio (PI3Kδ)?
Answer: A’

Question: What about the γ/δ ratio (PI3Kδ) of the same compound?
Answer: A’

Question: And the IC50 (mTOR)?
Answer: > 500 nM
